pIC50: −log10 of the molar value.
Tests used:
wild type FGFR-4 = target: T1, wild type FGFR-4 (Homo sapiens, UniProt P22455); experiment: FGFR-4 wild type assay at Km (Caliper mobility shift); assay type: biochemical; conditions: for pIC50: 400 uM ATP, 25 C, 90 minutes, read-out: FGFR4 IC50; for Ratio FGFR1/FGFR4: [IC50 for FGFR1]/[IC50 for FGFR4]
T1 construct: purchased Carna Biosciences, Inc
Experimental: (§1) In order to assess the activity of chemical compounds against the relevant kinase of interest, the Caliper LifeSciences electrophoretic mobility shift technology platform is utilized. Fluorescently labeled substrate peptide is incubated in the presence dosed levels of compounds, a set concentration of kinase and of ATP, so that a reflective proportion of the peptide is phosphorylated. At the end of the reaction, the mix of phosphorylated (product) and non-phosphorylated (substrate) peptides are passed through the microfluidic system of the Caliper LabChip® EZ Reader II, under an applied potential difference. The presence of the phosphate group on the product peptide provides a difference in mass and charge between the product peptide and the substrate peptide, resulting in a separation of the substrate and product pools in the sample. As the pools pass the LEDS within the instrument, these pools are detected and resolved as separate peaks. The ratio between these peaks therefore reflects the activity of the chemical matter at that concentration in that well, under those conditions.
(§2) The reaction was stopped by the addition of 70 ul of Stop buffer (100 mM HEPES pH 7.5, 0.015% Brij 35, 35 mM EDTA and 0.2% of Coating Reagent 3 (Caliper Lifesciences)). The plate was then read on a Caliper LabChip® EZ Reader II (protocol settings: —1.9 psi, upstream voltage—700, downstream voltage—3000, post sample sip 35 s).

wild type FGFR-1 = target: T2, wild type FGFR-1 (Homo sapiens, UniProt P11362); experiment: FGFR-1 wild type assay at Km (Caliper mobility shift); assay type: biochemical; conditions: 400 uM ATP, 25 C, 90 minutes; read-out: FGFR1 IC50
T2 construct: purchased Carna Biosciences, Inc
Experimental: as §1
as §2, with “EZReader 2” for “LabChip® EZ Reader II”

Hep3B xenograft tumors = experiment: Hep3B liver cancer cell subcutaneous xenograft model, tumor volume; assay type: in vivo, Mus Musculus; conditions: 30 mg/kg PO QD, Day 4 to Day 19
Experimental: […] female nude mice (Mus Musculus) age 6 to 8 weeks were used. Tumor cell culture and inoculation: Hep3B cells were cultured with EMEM medium (Invitrogen, USA) supplemented with 10% FBS (Gibco, Australia). The cells were harvested in 90% confluence, and the viability was no less than 90%. Mice were implanted subcutaneously (s.c.) with 200 μL of 10×10^6 Hep3B cells in 50% Matrigel in the right flank at the beginning of the study.
Animal grouping and dosing schedule: Ten days after cell implantation, when tumors reached an average volume of 199 mm^3, 45 mice were selected based on tumor volume and randomly assigned to 5 treatment groups (n=9). The day of randomization was denoted as D0 and the treatment was started from then on.
Tumor volume and body weight measurements: Tumor size was measured twice per week in two dimensions using a caliper, and the volume was expressed in mm^3 using the formula: V=0.5 a×b^2 where a and b were the long and short diameters of the tumor, respectively. Body weight was measured at least twice weekly.
End of in vivo portion: Blood, tumors and livers were collected from 3 mice in each treated group at 4, 12 and 24 hours after the last dose. The left lobe of the liver was collected for pharmacodynamic (PD) studies, and the rest of the liver was stored in formalin for histology. The small tumors were prioritized for use in pharmacokinetic studies. Any remaining tumor was fixed for histological analysis first, and then was snap-frozen for the PD study.

T1 sequence (P22455 22-802): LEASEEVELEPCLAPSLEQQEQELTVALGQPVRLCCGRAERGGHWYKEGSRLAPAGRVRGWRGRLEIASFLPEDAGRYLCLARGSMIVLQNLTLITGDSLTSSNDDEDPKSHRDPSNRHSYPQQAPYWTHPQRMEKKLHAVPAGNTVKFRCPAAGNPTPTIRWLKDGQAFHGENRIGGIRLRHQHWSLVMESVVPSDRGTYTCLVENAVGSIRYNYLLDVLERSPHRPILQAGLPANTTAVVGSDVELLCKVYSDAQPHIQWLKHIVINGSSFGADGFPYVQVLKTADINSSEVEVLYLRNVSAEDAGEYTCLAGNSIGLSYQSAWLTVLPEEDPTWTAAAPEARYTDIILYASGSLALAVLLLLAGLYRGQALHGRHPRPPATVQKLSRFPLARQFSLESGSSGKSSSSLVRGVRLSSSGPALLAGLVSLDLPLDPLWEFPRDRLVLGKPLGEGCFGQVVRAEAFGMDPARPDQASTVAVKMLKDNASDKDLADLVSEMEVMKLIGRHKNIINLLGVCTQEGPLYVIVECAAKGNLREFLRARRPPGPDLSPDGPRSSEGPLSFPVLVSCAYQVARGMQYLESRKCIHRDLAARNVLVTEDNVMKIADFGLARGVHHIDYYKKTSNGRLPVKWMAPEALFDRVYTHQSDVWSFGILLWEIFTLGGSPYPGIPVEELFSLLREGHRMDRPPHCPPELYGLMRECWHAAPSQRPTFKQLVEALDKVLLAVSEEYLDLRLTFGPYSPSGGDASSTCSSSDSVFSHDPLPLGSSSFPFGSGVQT
T2 sequence (P11362 22-822): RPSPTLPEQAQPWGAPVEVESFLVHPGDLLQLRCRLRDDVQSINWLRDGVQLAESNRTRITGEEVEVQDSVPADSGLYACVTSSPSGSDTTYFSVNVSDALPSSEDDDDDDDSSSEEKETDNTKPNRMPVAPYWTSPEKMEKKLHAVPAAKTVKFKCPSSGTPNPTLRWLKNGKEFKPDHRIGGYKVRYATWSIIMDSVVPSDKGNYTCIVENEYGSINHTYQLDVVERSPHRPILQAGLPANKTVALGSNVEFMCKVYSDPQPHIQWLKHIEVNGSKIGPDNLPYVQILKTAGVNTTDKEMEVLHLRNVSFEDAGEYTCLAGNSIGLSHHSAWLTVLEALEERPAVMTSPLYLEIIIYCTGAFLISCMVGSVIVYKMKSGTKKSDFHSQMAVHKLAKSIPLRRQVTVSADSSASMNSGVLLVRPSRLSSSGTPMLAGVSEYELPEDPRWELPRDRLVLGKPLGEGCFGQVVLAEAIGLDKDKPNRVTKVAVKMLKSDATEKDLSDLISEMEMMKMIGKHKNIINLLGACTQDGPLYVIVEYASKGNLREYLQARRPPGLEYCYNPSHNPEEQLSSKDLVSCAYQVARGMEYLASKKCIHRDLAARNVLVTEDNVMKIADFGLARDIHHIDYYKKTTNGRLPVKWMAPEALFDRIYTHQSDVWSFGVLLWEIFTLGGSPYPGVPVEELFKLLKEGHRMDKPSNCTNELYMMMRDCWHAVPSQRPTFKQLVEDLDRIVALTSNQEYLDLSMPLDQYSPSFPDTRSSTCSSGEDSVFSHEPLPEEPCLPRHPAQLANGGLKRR

## C=CC(=O)N(C)c1ncc2cc(-c3cc(OC)cc(OC)c3)c(=O)n(C)c2n1 [COMPOUND 3]
Wild type FGFR-4
  pIC50: 7.00 to 8.00
  Ratio FGFR1/FGFR4: A (the ratio is >500)
Wild type FGFR-1
  pIC50: < 6.00

## C=CC(=O)N(C)c1ncc2nc(-c3cc(OC)cc(OC)c3)c(=O)n(C)c2n1 [COMPOUND 4]
Wild type FGFR-4
  pIC50: 6.00 to 7.00
  Ratio FGFR1/FGFR4: B (the ratio is ≧200 and <500)
Wild type FGFR-1
  pIC50: < 6.00

## C=CC(=O)N(C)c1ncc2cc(-c3c(Cl)c(OC)cc(OC)c3Cl)cnc2n1 [COMPOUND 8]
Wild type FGFR-4
  Ratio FGFR1/FGFR4: E (the ratio is ≧10 and <50)
Wild type FGFR-1
  pIC50: 6.00 to 7.00

## C=CC(=O)N(C)c1ncc2cc(-c3c(Cl)c(OC)cc(OC)c3Cl)c(=O)n(C)c2n1 [COMPOUND 12]
Wild type FGFR-4
  Ratio FGFR1/FGFR4: D (the ratio is ≧50 and <100)
Wild type FGFR-1
  pIC50: 7.00 to 8.00

## C=CC(=O)N(C)c1ncc2c(n1)N(C)C(=O)N(c1c(Cl)c(OC)cc(OC)c1Cl)C2 [COMPOUND 14]
Wild type FGFR-4
  pIC50: 7.00 to 8.00
Wild type FGFR-1
  pIC50: 6.00 to 7.00

## C=CC(=O)Nc1ccccc1Nc1nccc(N2CCN(C(=O)Nc3ccc(C#N)cc3)CC2)n1 [COMPOUND 23]
Wild type FGFR-4
  pIC50: 6.00 to 7.00
  Ratio FGFR1/FGFR4: A (the ratio is >500)
Wild type FGFR-1
  pIC50: < 6.00

## C=CC(=O)Nc1cccc(C)c1Nc1ncc2cc(-c3c(Cl)c(OC)cc(OC)c3Cl)cnc2n1 [COMPOUND 26, N-(2-((6-(2,6-dichloro-3,5-dimethoxyphenyl)pyrido[2,3-d]pyrimidin-2-yl)amino)-3-methylphenyl)acrylamide]
Wild type FGFR-1
  pIC50: 6.00 to 7.00

## C=CC(=O)Nc1cccc(F)c1Nc1ncc2cc(-c3c(Cl)c(OC)cc(OC)c3Cl)ccc2n1 [COMPOUND 27]
Wild type FGFR-4
  Ratio FGFR1/FGFR4: C (the ratio is ≧100 and <200)
Wild type FGFR-1
  pIC50: 7.00 to 8.00

## C=C(C)C(=O)Nc1cccc(C)c1Nc1ncc2cc(-c3c(Cl)c(OC)cc(OC)c3Cl)ccc2n1 [COMPOUND 29]
Wild type FGFR-1
  pIC50: 6.00 to 7.00

## C=CC(=O)Nc1cccc(OC)c1Nc1ncc2cc(-c3c(Cl)c(OC)cc(OC)c3Cl)ccc2n1 [COMPOUND 30, N-(2-((6-(2,6-dichloro-3,5-dimethoxyphenyl)quinazolin-2-yl)amino)-3-methoxyphenyl)acrylamide]
Wild type FGFR-1
  pIC50: 6.00 to 7.00

## C=CC(=O)Nc1ccccc1Nc1cc2c(cn1)cc(-c1c(Cl)c(OC)cc(OC)c1Cl)c(=O)n2C [COMPOUND 31]
Wild type FGFR-4
  Ratio FGFR1/FGFR4: B (the ratio is ≧200 and <500)
Wild type FGFR-1
  pIC50: 7.00 to 8.00

## C=CC(=O)Nc1cccc(C)c1Nc1ncc2cc(-c3c(Cl)c(OC)cc(OC)c3Cl)cc(F)c2n1 [COMPOUND 34, N-(2-((6-(2,6-dichloro-3,5-dimethoxyphenyl)-8-fluoroquinazolin-2-yl)amino)-3-methylphenyl)acrylamide]
Wild type FGFR-1
  pIC50: 6.00 to 7.00

## C=CC(=O)Nc1ccc(F)c(F)c1Nc1ncc2cc(-c3c(Cl)c(OC)cc(OC)c3Cl)ccc2n1 [COMPOUND 37]
Wild type FGFR-4
  Ratio FGFR1/FGFR4: C (the ratio is ≧100 and <200)
Wild type FGFR-1
  pIC50: 6.00 to 7.00

## C=CC(=O)Nc1ccccc1-c1ccn2c(-c3cc(NC(=O)NCC(F)(F)F)cc(OC(C)C)c3)cnc2c1 [COMPOUND 38, N-(2-(3-(3-isopropoxy-5-(3-(2,2,2-trifluoroethyl)ureido)phenyl)imidazo[1,2-a]pyridin-7-yl)phenyl)acrylamide]
Wild type FGFR-4
  pIC50: 6.00 to 7.00
  Ratio FGFR1/FGFR4: E (the ratio is ≧10 and <50)
Wild type FGFR-1
  pIC50: < 6.00

## C=CC(=O)Nc1ccccc1Nc1ncc2cc(-c3c(Cl)c(OC)cc(OC)c3Cl)c(=O)n(C)c2c1C [COMPOUND 40, N-(2-((3-(2,6-dichloro-3,5-dimethoxyphenyl)-1,8-dimethyl-2-oxo-1,2-dihydro-1,6-naphthyridin-7-yl)amino)phenyl)acrylamide]
Wild type FGFR-4
  pIC50: 6.00 to 7.00

## C=CC(=O)Nc1cccc(C)c1Nc1ncc2cc(-c3c(Cl)c(OC)cc(OC)c3Cl)cc(OC)c2n1 [COMPOUND 41]
Wild type FGFR-1
  pIC50: 6.00 to 7.00

## C=CC(=O)Nc1cccc(C)c1Nc1ncc2cc(-c3c(Cl)c(OC)cc(OC)c3Cl)c(OC)cc2n1 [COMPOUND 42, N-(2-((6-(2,6-dichloro-3,5-dimethoxyphenyl)-7-methoxyquinazolin-2-yl)amino)-3-methylphenyl)acrylamide]
Wild type FGFR-1
  pIC50: 7.00 to 8.00

## C=CC(=O)Nc1cccc(C)c1Nc1ncc2cc(-c3c(Cl)c(OC)cc(OC)c3Cl)c(=O)n(C)c2n1 [COMPOUND 43, N-(2-((6-(2,6-dichloro-3,5-dimethoxyphenyl)-8-methyl-7-oxo-7,8-dihydropyrido[2,3-d]pyrimidin-2-yl)amino)-3-methylphenyl)acrylamide]
Wild type FGFR-1
  pIC50: 6.00 to 7.00

## C=CC(=O)Nc1ccccc1Nc1cc2nc(NC(=O)NC(C)(C)C)c(-c3cc(OC)cc(OC)c3)cc2cn1 [COMPOUND 44]
Wild type FGFR-4
  pIC50: 6.00 to 7.00
  Ratio FGFR1/FGFR4: E (the ratio is ≧10 and <50)

## C=CC(=O)Nc1cccc(C)c1Nc1ncc2nc(-c3c(Cl)c(OC)cc(OC)c3Cl)c(=O)n(C)c2n1 [COMPOUND 45, N-(2-((6-(2,6-dichloro-3,5-dimethoxyphenyl)-8-methyl-7-oxo-7,8-dihydropteridin-2-yl)amino)-3-methylphenyl)acrylamide]
Wild type FGFR-4
  Ratio FGFR1/FGFR4: E (the ratio is ≧10 and <50)

## C=CC(=O)Nc1cccc(F)c1Nc1cc2c(cn1)cc(-c1c(Cl)c(OC)cc(OC)c1Cl)c(=O)n2C [COMPOUND 46]
Wild type FGFR-4
  Ratio FGFR1/FGFR4: E (the ratio is ≧10 and <50)
Wild type FGFR-1
  pIC50: 6.00 to 7.00

## C=CC(=O)Nc1cccc(F)c1Nc1ncc2cc(-c3c(Cl)c(OC)cc(OC)c3Cl)cc(OC)c2n1 [COMPOUND 47]
Wild type FGFR-4
  Ratio FGFR1/FGFR4: B (the ratio is ≧200 and <500)
Wild type FGFR-1
  pIC50: 7.00 to 8.00

## C=CC(=O)Nc1cccc(C)c1Nc1ncc2c(n1)N(C)C(=O)N(c1c(Cl)c(OC)cc(OC)c1Cl)C2 [COMPOUND 48, N-(2-((6-(2,6-dichloro-3,5-dimethoxyphenyl)-8-methyl-7-oxo-5,6,7,8-tetrahydropyrimido[4,5-d]pyrimidin-2-yl)amino)-3-methylphenyl)acrylamide]
Wild type FGFR-4
  Ratio FGFR1/FGFR4: E (the ratio is ≧10 and <50)
Wild type FGFR-1
  pIC50: 6.00 to 7.00

## C=CS(=O)(=O)Nc1cccc(C)c1Nc1ncc2cc(-c3c(Cl)c(OC)cc(OC)c3Cl)ccc2n1 [COMPOUND 49A]
Wild type FGFR-4
  pIC50: 7.00 to 8.00
  Ratio FGFR1/FGFR4: E (the ratio is ≧10 and <50)
Wild type FGFR-1
  pIC50: 6.00 to 7.00

## C=CC(=O)Nc1cc(Cl)cc(C)c1Nc1ncc2cc(-c3c(Cl)c(OC)cc(OC)c3Cl)ccc2n1 [COMPOUND 49]
Wild type FGFR-4
  pIC50: 7.00 to 8.00

## C=CC(=O)Nc1ccccc1Nc1ncc(Cl)c(N2CCN(C(=O)Nc3cccc(C(F)(F)F)c3)CC2)n1 [COMPOUND 50, 4-(2-((2-acrylamidophenyl)amino)-5-chloropyrimidin-4-yl)-N-(3-(trifluoromethyl)phenyl)piperazine-1-carboxamide]
Wild type FGFR-4
  pIC50: 6.00 to 7.00

## C=CC(=O)Nc1cccc(C(F)(F)F)c1Nc1ncc2cc(-c3c(Cl)c(OC)cc(OC)c3Cl)ccc2n1 [COMPOUND 51]
Wild type FGFR-4
  pIC50: 7.00 to 8.00
  Ratio FGFR1/FGFR4: F (the ratio of [IC50 for FGFR1]/[IC50 for FGFR4] is less than 10)
Wild type FGFR-1
  pIC50: < 6.00

## C=CC(=O)Nc1cc(N2CCOCC2)cc(C)c1Nc1ncc2cc(-c3c(Cl)c(OC)cc(OC)c3Cl)ccc2n1 [COMPOUND 53]
Wild type FGFR-4
  Ratio FGFR1/FGFR4: C (the ratio is ≧100 and <200)
Wild type FGFR-1
  pIC50: 6.00 to 7.00

## C=CC(=O)Nc1cc(C(=O)NC2CCN(C)CC2)ccc1Nc1ncc(C)c(N2CCN(C(=O)Nc3ccc(C#N)cc3)CC2)n1 [COMPOUND 54, 4-(2-((2-acrylamido-4-((1-methylpiperidin-4-yl)carbamoyl)phenyl)amino)-5-methylpyrimidin-4-yl)-N-(4-cyanophenyl)piperazine-1-carboxamide]
Wild type FGFR-4
  pIC50: 7.00 to 8.00

## C=CC(=O)N(CCCCN(CC)CC)c1ncc2cc(-c3c(Cl)c(OC)cc(OC)c3Cl)c(NC(=O)NC(C)(C)C)nc2n1 [COMPOUND 55, N-(7-(3-(tert-butyl)ureido)-6-(2,6-dichloro-3,5-dimethoxyphenyl)pyrido[2,3-d]pyrimidin-2-yl)-N-(4-(diethylamino)butyl)acrylamide]
Wild type FGFR-1
  pIC50: 7.00 to 8.00

## CNC(=O)c1cc(Oc2ccc(NC(=O)Nc3ccc(Cl)c(C(F)(F)F)c3)cc2)ccn1 [Sorafenib, reference compound]
Hep3B xenograft tumors
  tumor volume compared with vehicle group: Statistically significant reduction of tumor volumes
